In the supplement of paper PMC10307832:

How the values were obtained:
Assay in all cases: relative viability (nuclei count vs DMSO), 5 days (fraction); higher = more cells survive
Selisistat + Pictilisib = compound: C1CC(C2=C(C1)C3=C(N2)C=CC(=C3)Cl)C(=O)N [Selisistat] + CS(=O)(=O)N1CCN(Cc2cc3nc(-c4cccc5[nH]ncc45)nc(N4CCOCC4)c3s2)CC1 [Pictilisib] (partner 1 µM)
How it was run: (§1)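 Values are medians from duplicate plates. Each reflects relative viability, defined as the nuclei count of treated wells over that of vehicle wells. Lung cancer cell lines in 1536-well plates were pin-tool dosed one day after seeding with one drug alone or with a fixed anchor-drug dose plus five library-drug doses (not always all listed) in √10 steps, then fixed, stained and imaged at 4× after 5 days.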

Selisistat + Lapatinib = compound: C1CC(C2=C(C1)C3=C(N2)C=CC(=C3)Cl)C(=O)N [Selisistat] + CS(=O)(=O)CCNCc1ccc(-c2ccc3ncnc(Nc4ccc(OCc5cccc(F)c5)c(Cl)c4)c3c2)o1 [Lapatinib] (partner 2 µM)
How it was run: as §1

Serdemetan + Alpelisib = compound: c1ccc2c(CCNc3ccc(Nc4ccncc4)cc3)c[nH]c2c1 [Serdemetan] + Cc1nc(NC(=O)N2CCC[C@H]2C(N)=O)sc1-c1ccnc(C(C)(C)C(F)(F)F)c1 [Alpelisib] (partner 2 µM)
How it was run: as §1

Serdemetan + Lapatinib = compound: c1ccc2c(CCNc3ccc(Nc4ccncc4)cc3)c[nH]c2c1 [Serdemetan] + CS(=O)(=O)CCNCc1ccc(-c2ccc3ncnc(Nc4ccc(OCc5cccc(F)c5)c(Cl)c4)c3c2)o1 [Lapatinib] (partner 2 µM)
How it was run: as §1

| Cell Line | relative viability (Selisistat + Pictilisib; first compound 0.4 µM) | relative viability (Selisistat + Pictilisib; first compound 1.265 µM) | relative viability (Selisistat + Pictilisib; first compound 4 µM) | relative viability (Selisistat + Pictilisib; first compound 12.65 µM) | relative viability (Selisistat + Pictilisib; first compound 40 µM) | relative viability (Selisistat + Lapatinib; first compound 0.4 µM) | relative viability (Selisistat + Lapatinib; first compound 1.265 µM) | relative viability (Selisistat + Lapatinib; first compound 4 µM) | relative viability (Selisistat + Lapatinib; first compound 12.65 µM) | relative viability (Selisistat + Lapatinib; first compound 40 µM) | relative viability (Serdemetan + Alpelisib; first compound 0.04 µM) | relative viability (Serdemetan + Alpelisib; first compound 0.1265 µM) | relative viability (Serdemetan + Alpelisib; first compound 0.4 µM) | relative viability (Serdemetan + Alpelisib; first compound 1.265 µM) | relative viability (Serdemetan + Alpelisib; first compound 4 µM) | relative viability (Serdemetan + Lapatinib; first compound 0.04 µM) | relative viability (Serdemetan + Lapatinib; first compound 0.1265 µM) | relative viability (Serdemetan + Lapatinib; first compound 0.4 µM) | relative viability (Serdemetan + Lapatinib; first compound 1.265 µM) | relative viability (Serdemetan + Lapatinib; first compound 4 µM) |
| --- | --- | --- | --- | --- | --- | --- | --- | --- | --- | --- | --- | --- | --- | --- | --- | --- | --- | --- | --- | --- |
| A-427 | 0.625 | 0.622 | 0.327 | 0.656 | 0.73 | 1.03 | 1.02 | 0.98 | 0.879 | 1.12 | 1.05 | 1.05 | 1.1 | 0.833 | 0.561 | 0.996 | 0.987 | 1.1 | 1.02 | 0.749 |
| NCI-H1792 | 0.327 | 0.281 | – | 0.251 | 0.279 | 0.917 | 0.89 | – | 0.829 | 0.926 | 0.697 | 0.686 | 0.567 | 0.529 | 0.257 | 0.854 | 0.863 | 0.86 | 0.646 | 0.676 |
| LCLC-97TM1 | 0.148 | 0.191 | 0.134 | 0.185 | 0.218 | 0.779 | 1.12 | 0.86 | 0.928 | 1.32 | 0.258 | 0.203 | 0.241 | 0.225 | 0.202 | 0.776 | 1.16 | 1.11 | 0.674 | 0.87 |
| NCI-H1703 | 0.232 | 0.217 | 0.242 | 0.267 | 0.233 | 1.1 | 1.06 | 1.12 | 1.05 | 1.05 | 0.389 | 0.345 | 0.306 | 0.277 | 0.374 | 1.38 | 1.05 | 1.07 | 1.09 | 0.885 |
| LCLC-103H | 0.662 | 0.629 | 0.464 | 0.508 | 0.666 | – | – | – | – | – | 0.944 | 0.957 | 0.923 | 0.844 | 0.764 | – | – | – | – | – |
| PC-3 [JPC-3] | 0.753 | 0.749 | 0.449 | 0.631 | 0.696 | 0.439 | 0.457 | 0.398 | 0.487 | 0.417 | 1.04 | 0.979 | – | 1.01 | 1.05 | 0.439 | 0.471 | – | 0.447 | 0.465 |
| ChaGo-K-1 | 0.804 | 0.844 | – | 0.675 | 0.646 | – | – | – | – | – | – | – | – | – | – | – | – | – | – | – |
| NCI-H441 | 0.511 | 0.44 | 0.405 | 0.547 | 0.48 | – | – | – | – | – | 0.85 | 0.678 | 0.803 | 0.524 | 0.513 | – | – | – | – | – |
